The values that follow are results of earlier work, collected in patent publication US4933445A, “Heteroazabenzobicyclic carboxamide 5-HT3 antagonists” (Rorer Pharmaceutical Corporation, priority 1988, dated 1990).

For this data set, the system named is 5-HT3 receptor. Particulars: becomes more prominent at higher doses.

For the compound `CCN(CC)CCNC(=O)c1cc(Cl)c(N)cc1OC` [Metoclopramide], the 5-HT3-antagonist activity result was “weak”.
